SMILES strings stand for the structures. Where a name gives a salt, the structure may show the parent alone.

A word on the melting point: it is the temperature, or range, at which the solid turns liquid. As for `CN1Cc2cc(-c3ccc(-c4cccc(S(=O)(=O)Nc5ccccn5)c4)s3)ccc2C1=O` (as salt: sodium) [Compound 14, sodium ((3-(5-(2-methyl-1-oxoisoindolin-5-yl)thiophen-2-yl)phenyl)sulfonyl)(pyridin-2-yl)amide], the melting point lay within 302 to 306 °C.

Regarding `COc1ccc(-c2ccc(-c3ccc4c(c3)CN(C)C4=O)s2)cc1S(=O)(=O)Nc1ccccn1` (as salt: sodium) [Compound 19, Sodium ((2-methoxy-5-(5-(2-methyl-1-oxoisoindolin-5-yl)thiophen-2-yl)phenyl)sulfonyl)(pyridin-2-yl)amide], the melting point is 322 to 325 °C.

Turning to `COc1ccc(S(=O)(=O)Nc2cncc(-c3ccc(-c4ccc5c(c4)CN(C)C5=O)s3)c2)cc1OC` (as salt: sodium) [Compound 40, 3,4-Dimethoxy-N-(5-(5-(2-methyl-1-oxoisoindolin-5-yl)thiophen-2-yl)pyridin-3-yl)benzenesulfonamide, sodium salt], the melting point lay in the range of 240 to 244 °C.

`CN1Cc2cc(-c3ccc(-c4cncc(NS(=O)(=O)c5ccc(S(C)(=O)=O)cc5)c4)s3)ccc2C1=O` (as salt: sodium) [Compound 57, Sodium (5-(5-(2-methyl-1-oxoisoindolin-5-yl)thiophen-2-yl)pyridin-3-yl)((4-(methylsulfonyl)phenyl)sulfonyl)amide]: the melting point is more than 300 °C.

`CN1Cc2cc(-c3ccc(-c4ccnc(NS(=O)(=O)c5ccc(F)cc5F)c4)s3)ccc2C1=O` [Compound 5, 2,4-Difluoro-N-(4-(5-(2-methyl-1-oxoisoindolin-5-yl)thiophen-2-yl)pyridin-2-yl)benzenesulfonamide] returned a melting point of 235 to 239 °C.

For `CN1Cc2cc(-c3ccc(-c4cncc(N(C)S(=O)(=O)c5ccc(F)cc5F)c4)s3)ccc2C1=O` [Compound 6, 2,4-Difluoro-N-methyl-N-(5-(5-(2-methyl-1-oxoisoindolin-5-yl)thiophen-2-yl)pyridin-3-yl)-benzenesulphonamide], the melting point lay in the range of 200 to 202 °C.

Turning to `CN1Cc2cc(-c3ccc(-c4cncc(S(=O)(=O)Nc5ccc(F)cc5F)c4)s3)ccc2C1=O` [Compound 7, N-(2,4-Difluorophenyl)-5-(5-(2-methyl-1-oxoisoindolin-5-yl)thiophen-2-yl)pyridine-3-sulphonamide], the melting point lay within 221 to 224 °C.

Compound `CN1Cc2cc(-c3ccc(-c4cccc(NS(=O)(=O)c5ccc(F)cc5F)c4)s3)ccc2C1=O` [Compound 9, 2,4-Difluoro-N-(3-(5-(2-methyl-1-oxoisoindolin-5-yl)thiophen-2-yl)phenyl)benzene sulphonamide] gave a melting point of 260 to 262 °C.

Turning to `COc1ncc(-c2ccc(-c3ccc4c(c3)CN(C)C4=O)s2)cc1NS(=O)(=O)c1ccc(F)cc1F` [Compound 12, 2,4-Difluoro-N-(2-methoxy-5-(5-(2-methyl-1-oxoisoindolin-5-yl)-thiophen-2-yl)pyridin-3-yl)benzenesulphonamide], the melting point fell in the range of 224 to 227 °C.

Compound `Cc1ccc(NS(=O)(=O)c2ccccn2)cc1-c1ccc(-c2ccc3c(c2)CN(C)C3=O)s1` [Compound 15, N-(4-Methyl-3-(5-(2-methyl-1-oxoisoindolin-5-yl)thiophen-2-yl)phenyl)pyridine-2-sulfonamide] displayed a melting point of 274 to 277 °C.

`CN1Cc2cc(-c3ccc(-c4ccc(OC(F)(F)F)c(NS(=O)(=O)c5ccccn5)c4)s3)ccc2C1=O` [Compound 18, N-(5-(5-(2-Methyl-1-oxoisoindolin-5-yl)thiophen-2-yl)-2-(trifluoromethoxy)phenyl)pyridine-2-sulfonamide] registered a melting point of 200 to 201 °C.

On to `CN1Cc2cc(-c3ccc(-c4cncc(NS(=O)(=O)c5ccccc5)c4)s3)ccc2C1=O` [Compound 21, N-(5-(5-(2-Methyl-1-oxoisoindolin-5-yl)thiophen-2-yl)pyridin-3-yl)benzenesulphonamide], for which the melting point fell in the range of 300 to 303 °C.

The compound `CN1Cc2cc(-c3ccc(-c4cncc(NS(=O)(=O)c5ccccc5F)c4)s3)ccc2C1=O` [Compound 22, 2-Fluoro-N-(5-(5-(2-methyl-1-oxoisoindolin-5-yl)thiophen-2-yl)pyridin-3-yl)benzenesulfonamide] came in with a melting point of 289 to 292 °C.

In turn, `CN1Cc2cc(-c3ccc(-c4cncc(NS(=O)(=O)c5cccc(F)c5)c4)s3)ccc2C1=O` [Compound 23, 3-Fluoro-N-(5-(5-(2-methyl-1-oxoisoindolin-5-yl)thiophen-2-yl)pyridin-3-yl)benzenesulfonamide] registered a melting point of 292 to 294 °C.

Take `CN1Cc2cc(-c3ccc(-c4cncc(NS(=O)(=O)c5ccc(F)cc5)c4)s3)ccc2C1=O` [Compound 24, 4-Fluoro-N-(5-(5-(2-methyl-1-oxoisoindolin-5-yl)thiophen-2-yl)pyridin-3-yl)benzenesulfonamide]: the melting point was in the range of 272 to 274 °C.

In the case of `CN1Cc2cc(-c3ccc(-c4cncc(NS(=O)(=O)c5ccc(F)c(F)c5)c4)s3)ccc2C1=O` [Compound 25, 3,4-Difluoro-N-(5-(5-(2-methyl-1-oxoisoindolin-5-yl)thiophen-2-yl)pyridin-3-yl)benzenesulfonamide], the melting point was in the range of 282 to 285 °C.

`CN1Cc2cc(-c3ccc(-c4cncc(NS(=O)(=O)c5ccccc5Cl)c4)s3)ccc2C1=O` [Compound 27, 2-Chloro-N-(5-(5-(2-methyl-1-oxoisoindolin-5-yl)thiophen-2-yl)pyridin-3-yl)benzenesulfonamide] registered a melting point of 299 to 303 °C.

For the compound `CN1Cc2cc(-c3ccc(-c4cncc(NS(=O)(=O)c5cccc(Cl)c5)c4)s3)ccc2C1=O` [Compound 28, 3-Chloro-N-(5-(5-(2-methyl-1-oxoisoindolin-5-yl)thiophen-2-yl)pyridin-3-yl)benzenesulfonamide], the melting point lay within 291 to 295 °C.

In the case of `CN1Cc2cc(-c3ccc(-c4cncc(NS(=O)(=O)c5ccc(Cl)cc5)c4)s3)ccc2C1=O` [Compound 29, 4-Chloro-N-(5-(5-(2-methyl-1-oxoisoindolin-5-yl)thiophen-2-yl)pyridin-3-yl)benzenesulfonamide], the melting point lay within 281 to 284 °C.

Take `CN1Cc2cc(-c3ccc(-c4cncc(NS(=O)(=O)c5ccc(Cl)c(Cl)c5)c4)s3)ccc2C1=O` [Compound 30, 3,4-Dichloro-N-(5-(5-(2-methyl-1-oxoisoindolin-5-yl)thiophen-2-yl)pyridin-3-yl)benzenesulfonamide]: the melting point lay in the range of 256 to 259 °C.

`CN1Cc2cc(-c3ccc(-c4cncc(NS(=O)(=O)c5ccc(Cl)cc5Cl)c4)s3)ccc2C1=O` [Compound 31, 2,4-Dichloro-N-(5-(5-(2-methyl-1-oxoisoindolin-5-yl)thiophen-2-yl)pyridin-3-yl)benzenesulfonamide] gave a melting point of 282 to 285 °C.

Consider `CN1Cc2cc(-c3ccc(-c4cncc(NS(=O)(=O)c5ccccc5Br)c4)s3)ccc2C1=O` [Compound 32, 2-Bromo-N-(5-(5-(2-methyl-1-oxoisoindolin-5-yl)thiophen-2-yl)pyridin-3-yl)benzenesulfonamide], for which the melting point was 289 to 293 °C.

Take `CN1Cc2cc(-c3ccc(-c4cncc(NS(=O)(=O)c5cccc(Br)c5)c4)s3)ccc2C1=O` [Compound 33, 3-Bromo-N-(5-(5-(2-methyl-1-oxoisoindolin-5-yl)thiophen-2-yl)pyridin-3-yl)benzenesulfonamide]: the melting point is 303 to 307 °C.

In turn, `CN1Cc2cc(-c3ccc(-c4cncc(NS(=O)(=O)c5ccc(Br)cc5)c4)s3)ccc2C1=O` [Compound 34, 4-Bromo-N-(5-(5-(2-methyl-1-oxoisoindolin-5-yl)thiophen-2-yl)pyridin-3-yl)benzenesulfonamide] returned a melting point of 276 to 279 °C.

`CN1Cc2cc(-c3ccc(-c4cncc(NS(=O)(=O)c5ccc(Br)cc5Br)c4)s3)ccc2C1=O` [Compound 35, 2,4-Dibromo-N-(5-(5-(2-methyl-1-oxoisoindolin-5-yl)thiophen-2-yl)pyridin-3-yl)benzenesulfonamides] showed a melting point of 276 to 279 °C.

With `CN1Cc2cc(-c3ccc(-c4cncc(NS(=O)(=O)c5ccc(I)cc5)c4)s3)ccc2C1=O` [Compound 36, 4-Iodo-N-(5-(5-(2-methyl-1-oxoisoindolin-5-yl)thiophen-2-yl)pyridin-3-yl)benzenesulfonamides], the melting point fell in the range of 295 to 298 °C.

Compound `COc1ccccc1S(=O)(=O)Nc1cncc(-c2ccc(-c3ccc4c(c3)CN(C)C4=O)s2)c1` [Compound 37, 2-Methoxy-N-(5-(5-(2-methyl-1-oxoisoindolin-5-yl)thiophen-2-yl)pyridin-3-yl)benzenesulfonamide] had a melting point of 273 to 276 °C.

As to `COc1cccc(S(=O)(=O)Nc2cncc(-c3ccc(-c4ccc5c(c4)CN(C)C5=O)s3)c2)c1` [Compound 38, 3-Methoxy-N-(5-(5-(2-methyl-1-oxoisoindolin-5-yl)thiophen-2-yl)pyridin-3-yl)benzenesulfonamide], the melting point was 278 to 280 °C.

`COc1ccc(S(=O)(=O)Nc2cncc(-c3ccc(-c4ccc5c(c4)CN(C)C5=O)s3)c2)cc1` [Compound 39, 4-Methoxy-N-(5-(5-(2-methyl-1-oxoisoindolin-5-yl)thiophen-2-yl)pyridin-3-yl)benzenesulfonamide] yielded a melting point of 254 to 258 °C.

`CN1Cc2cc(-c3ccc(-c4cncc(NS(=O)(=O)c5ccccc5OC(F)(F)F)c4)s3)ccc2C1=O` [Compound 41, N-(5-(5-(2-Methyl-1-oxoisoindolin-5-yl)thiophen-2-yl)pyridin-3-yl)-2-(trifluoromethoxy)benzenesulfonamide] yielded a melting point of 251 to 254 °C.

`CN1Cc2cc(-c3ccc(-c4cncc(NS(=O)(=O)c5cccc(OC(F)(F)F)c5)c4)s3)ccc2C1=O` [Compound 42, N-(5-(5-(2-Methyl-1-oxoisoindolin-5-yl)thiophen-2-yl)pyridin-3-yl)-3-(trifluoromethoxy)benzenesulfonamide] showed a melting point of 230 to 232 °C.

Consider `CN1Cc2cc(-c3ccc(-c4cncc(NS(=O)(=O)c5ccc(OC(F)(F)F)cc5)c4)s3)ccc2C1=O` [Compound 43, N-(5-(5-(2-Methyl-1-oxoisoindolin-5-yl)thiophen-2-yl)pyridin-3-yl)-4-(trifluoromethoxy)benzenesulfonamide], for which the melting point is 293 to 296 °C.

The values are drawn from paper PMC5500991, “Substituted arylsulphonamides as inhibitors of perforin-mediated lysis” (European Journal of Medicinal Chemistry, 2017).
